Experimental data reported in patent US9938273B2 (Plexxikon Inc., priority 2015, dated 2018).

Key:
[1] = test system: MOLM-14 F691L cells, FLT3 ITD and FLT3 F691L; assay: Cell proliferation assay (CellTiter-Glo), MOLM-14 F691L; assay type: cell-based; settings: Homo sapiens, 72 h, 3d-Growth, GMean
Source text: The FLT3 inhibitors may be assessed using the MOLM-14, Acute Myeloid Leukemia cell line that endogenously expresses FLT3 ITD or derivatives of the human FLT3 AML cell line which acquired the D835Y (activation loop) of F691L (gatekeeper) mutation after selection in escalating doses of the FLT3 Inhibitor AC220. FLT3 inhibitors may also be assessed using cells that are engineered to express mutant FLT3. For engineered cells, murine Ba/F3 cells were transfected with full-length FLT3 ITD/D835Y mutations. The parental BA/F3 cells are dependent upon Interleukin-3 (IL-3) for survival, and introduction of the FLT3 constructs rendered these cells dependent upon FLT3 kinase activity when cultured in the absences of IL-3. Engineered BA/F3 cell growth assays can be performed in either the […] of IL-3, to assess the compound inhibition of FLT3 or to detect the presence of off-target activity, respectively. Inhibitors of FLT3 kinase activity reduce or eliminate the FLT3 oncogenic signaling, resulting in reduced cell proliferation. This inhibition is measured as a function of compound concentration to asses IC50 values.
Cell lines used in proliferation assays are as follows in Table 3:
Cells were seeded at 1×10^4 cells per well of a 96 well cell culture plate in 50 μl of cell culture medium. Compounds were dissolved in DMSO, typically at a concentration of 0.5 mM and were serially diluted 1:3 for a total of eight points and added to the cells to final concentrations of […], 0.0041, 0.0014 and 0.00046 μM in 100 μl cell culture medium (final concentration 0.2% DMSO). […] The cells were incubated at 37° C., 5% CO2 for three days. CellTiter-Glo Buffer (Promega Cell Viability Assay catalog #G7573) and substrate were equilibrated to room temperature, and enzyme/substrate Recombinant Firefly Luciferase/Beetle Luciferin was reconstituted. The cell plates were equilibrated to room temperature for 30 minutes, then lysed by addition of an equivalent volume of the Celltiter-Glo Reagent. The plate was mixed for 10 minutes on a plate shaker to lyse the cells. The plates were read on a Tecan M1000 using Luminescence protocol modified to read 0.1 s per well. The luminescence reading assesses the ATP content, which correlates directly with cell number such that the reading as a function of compound concentration was used to determine the IC50 value.

FLT3-D835Y = molecular target: T1, FLT3-D835Y (Homo sapiens, UniProt P36888, D835Y); assay: AlphaScreen kinase assay with recombinant enzyme, FLT3-D835Y; assay type: biochemical; settings: 8pt, GMean
T1 construct: purchased Invitrogen PV3967
T1 sequence (P36888 27-993 D835Y): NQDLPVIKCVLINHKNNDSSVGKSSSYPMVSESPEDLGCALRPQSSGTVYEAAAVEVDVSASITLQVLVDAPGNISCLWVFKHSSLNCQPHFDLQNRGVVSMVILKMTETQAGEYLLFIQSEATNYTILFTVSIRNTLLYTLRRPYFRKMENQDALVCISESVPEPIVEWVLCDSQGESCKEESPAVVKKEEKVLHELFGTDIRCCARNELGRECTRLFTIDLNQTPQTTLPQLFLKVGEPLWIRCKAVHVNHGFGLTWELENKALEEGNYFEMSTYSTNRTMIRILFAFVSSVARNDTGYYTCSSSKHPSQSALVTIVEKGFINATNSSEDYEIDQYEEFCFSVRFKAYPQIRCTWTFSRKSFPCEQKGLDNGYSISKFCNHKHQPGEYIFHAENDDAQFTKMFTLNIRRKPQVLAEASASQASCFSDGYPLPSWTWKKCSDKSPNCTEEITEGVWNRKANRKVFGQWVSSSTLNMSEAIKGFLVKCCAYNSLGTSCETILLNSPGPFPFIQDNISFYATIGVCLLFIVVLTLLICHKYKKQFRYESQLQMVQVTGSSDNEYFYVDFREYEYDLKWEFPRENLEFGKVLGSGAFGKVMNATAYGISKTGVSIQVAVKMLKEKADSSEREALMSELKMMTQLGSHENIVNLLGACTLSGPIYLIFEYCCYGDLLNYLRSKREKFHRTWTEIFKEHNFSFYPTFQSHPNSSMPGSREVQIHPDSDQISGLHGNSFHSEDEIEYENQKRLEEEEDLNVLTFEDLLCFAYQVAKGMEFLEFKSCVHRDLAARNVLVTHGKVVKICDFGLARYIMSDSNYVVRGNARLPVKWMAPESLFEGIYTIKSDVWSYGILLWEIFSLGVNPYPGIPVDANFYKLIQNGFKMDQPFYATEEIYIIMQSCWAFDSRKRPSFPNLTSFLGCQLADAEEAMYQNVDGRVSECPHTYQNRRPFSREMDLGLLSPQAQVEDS
Method in brief: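 Tyrosine phosphorylation of biotin-poly(Glu4-Tyr) substrate by recombinant enzyme is detected with PY20 acceptor and streptavidin donor beads after room-temperature incubations of 20 and 60 min. IC50 values were derived at a final 10 μM (FLT3-D835Y, FLT3-ITD) or 100 μM (c-KIT).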

| IC50 [1] [µM] | IC50 (FLT3-D835Y) [µM] | Compound |
| --- | --- | --- |
| 0.0001 to 10 | 0.0001 to 10 | N#CC1CCN(C(=O)c2cccc(-c3cnc4[nH]c(-c5cnn(C(F)F)c5)cc4c3)n2)C1 (stereo not shown) [Compound P-0134, 1-[6-[2-[1-(difluoromethyl)pyrazol-4-yl]-1H-pyrrolo[2,3-b]pyridin-5-yl]pyridine-2-carbonyl]pyrrolidine-3-carbonitrile] |
| 0.0001 to 10 | 0.0001 to 10 | N#CC1CCN(C(=O)c2cccc(-c3cnc4[nH]c(C5=CCN(C(=O)C6CC6)C5)cc4c3)n2)C1 (stereo not shown) [Compound P-0136, 1-[6-[2-[1-(cyclopropanecarbonyl)-2,5-dihydropyrrol-3-yl]-1H-pyrrolo[2,3-b]pyridin-5-yl]pyridine-2-carbonyl]pyrrolidine-3-carbonitrile] |
| 0.0001 to 10 | 0.0001 to 10 | N#CC1(CNC(=O)c2cccc(-c3cnc4[nH]c(-c5ccccc5)cc4c3)n2)CC1 [Compound P-0137, N-[(1-cyanocyclopropyl)methyl]-6-(2-phenyl-1H-pyrrolo[2,3-b]pyridin-5-yl)pyridine-2-carboxamide] |
| 0.0001 to 10 | 0.0001 to 10 | CC(C)(C#N)CNC(=O)c1cccc(-c2cnc3[nH]c(-c4ccccc4)c(Cl)c3c2)n1 [Compound P-0138, 6-(3-chloro-2-phenyl-1H-pyrrolo[2,3-b]pyridin-5-yl)-N-(2-cyano-2-methyl-propyl)pyridine-2-carboxamide] |
| 0.0001 to 10 | 0.0001 to 10 | CC(C)(C)NC(=O)c1cccc(-c2cnc3[nH]c(-c4ccccc4)cc3c2)n1 [Compound P-0140, N-tert-butyl-6-(2-phenyl-1H-pyrrolo[2,3-b]pyridin-5-yl)pyridine-2-carboxamide] |
| 0.0001 to 10 | 0.0001 to 10 | CC(C)(C#N)CNC(=O)c1cccc(-c2cnc3[nH]c(C4=CCN(C(=O)C5CC5)C4)cc3c2)n1 [Compound P-0141, N-(2-cyano-2-methyl-propyl)-6-[2-[1-(cyclopropanecarbonyl)-2,5-dihydropyrrol-3-yl]-1H-pyrrolo[2,3-b]pyridin-5-yl]pyridine-2-carboxamide] |
| 0.0001 to 10 | 0.0001 to 10 | CC(C)(C#N)CNC(=O)c1cccc(-c2cnc3[nH]c(-c4ccc(F)cc4)cc3c2)n1 [Compound P-0144, N-(2-cyano-2-methyl-propyl)-6-[2-(4-fluorophenyl)-1H-pyrrolo[2,3-b]pyridin-5-yl]pyridine-2-carboxamide] |
| 0.0001 to 10 | 0.0001 to 10 | CC(C)(C#N)NC(=O)c1cccc(-c2cnc3[nH]c(-c4ccc(F)cc4)cc3c2)n1 [Compound P-0145, N-(1-cyano-1-methyl-ethyl)-6-[2-(4-fluorophenyl)-1H-pyrrolo[2,3-b]pyridin-5-yl]pyridine-2-carboxamide] |
| 0.0001 to 10 | 0.0001 to 10 | N#CC1(NC(=O)c2cccc(-c3cnc4[nH]c(-c5ccccc5)cc4c3)n2)CCCC1 [Compound P-0146, N-(1-cyanocyclopentyl)-6-(2-phenyl-1H-pyrrolo[2,3-b]pyridin-5-yl)pyridine-2-carboxamide] |
| 0.0001 to 10 | 0.0001 to 10 | N#CCCNC(=O)c1cccc(-c2cnc3[nH]c(-c4ccccc4)c(Br)c3c2)n1 [Compound P-0147, 6-(3-bromo-2-phenyl-1H-pyrrolo[2,3-b]pyridin-5-yl)-N-(2-cyanoethyl)pyridine-2-carboxamide] |
| 0.0001 to 10 | 0.0001 to 10 | CC(C)(O)CNC(=O)c1cccc(-c2cnc3[nH]c(-c4ccccc4)cc3c2)n1 [Compound P-0150, N-(2-hydroxy-2-methyl-propyl)-6-(2-phenyl-1H-pyrrolo[2,3-b]pyridin-5-yl)pyridine-2-carboxamide] |
| 0.0001 to 10 | 0.0001 to 10 | CC(C)(C#N)CNC(=O)c1cccc(-c2cnc3[nH]c(-c4cnn(C(F)F)c4)cc3c2)n1 [Compound P-0153, N-(2-cyano-2-methyl-propyl)-6-[2-[1-(difluoromethyl)pyrazol-4-yl]-1H-pyrrolo[2,3-b]pyridin-5-yl]pyridine-2-carboxamide] |
| 0.0001 to 10 | 0.0001 to 10 | O=C(NC1(C(F)(F)F)CC1)c1cccc(-c2cnc3[nH]c(-c4ccccc4)cc3c2)n1 [Compound P-0156, 6-(2-phenyl-1H-pyrrolo[2,3-b]pyridin-5-yl)-N-[1-(trifluoromethyl)cyclopropyl]pyridine-2-carboxamide] |
| 0.0001 to 10 | 0.0001 to 10 | CC(C)(C#N)CNC(=O)c1cccc(-c2cnc3[nH]c(C4=CCC(F)(F)CC4)cc3c2)n1 [Compound P-0157, N-(2-cyano-2-methyl-propyl)-6-[2-(4,4-difluorocyclohexen-1-yl)-1H-pyrrolo[2,3-b]pyridin-5-yl]pyridine-2-carboxamide] |
| 0.0001 to 10 | 0.0001 to 10 | CC(C)(C#N)CNC(=O)c1cccc(-c2cnc3[nH]c(C4=CCS(=O)(=O)CC4)cc3c2)n1 [Compound P-0160, N-(2-cyano-2-methyl-propyl)-6-[2-(1,1-dioxo-3,6-dihydro-2H-thiopyran-4-yl)-1H-pyrrolo[2,3-b]pyridin-5-yl]pyridine-2-carboxamide] |
| 0.0001 to 10 | 0.0001 to 10 | CC(C)(C#N)CNC(=O)c1cccc(-c2cnc3[nH]c(C4=CC[S+]([O-])CC4)cc3c2)n1 (stereo not shown) [Compound P-0161, N-(2-cyano-2-methyl-propyl)-6-[2-(1-oxo-3,6-dihydro-2H-thiopyran-4-yl)-1H-pyrrolo[2,3-b]pyridin-5-yl]pyridine-2-carboxamide] |
| 0.0001 to 10 | 0.0001 to 10 | CC(C)(C#N)CNC(=O)c1cccc(-c2cnc3[nH]c(C4=CCN(C(=O)C5CC5)CC4)cc3c2)n1 [Compound P-0162, N-(2-cyano-2-methyl-propyl)-6-[2-[1-(cyclopropanecarbonyl)-3,6-dihydro-2H-pyridin-4-yl]-1H-pyrrolo[2,3-b]pyridin-5-yl]pyridine-2-carboxamide] |
| 0.0001 to 10 | 0.0001 to 10 | CC(C)(C#N)NC(=O)c1cccc(-c2cnc3[nH]c(-c4cnn(C(F)F)c4)cc3c2)n1 [Compound P-0164, N-(2-cyanopropan-2-yl)-6-(2-(1-(difluoromethyl)-1H-pyrazol-4-yl)-1H-pyrrolo[2,3-b]pyridin-5-yl)picolinamide] |
| 0.0001 to 10 | 0.0001 to 10 | CC(C)(C#N)NC(=O)c1cccc(-c2cnc3[nH]c(-c4cnn(C5CC5)c4)cc3c2)n1 [Compound P-0165, N-(1-cyano-1-methyl-ethyl)-6-[2-(1-cyclopropylpyrazol-4-yl)-1H-pyrrolo[2,3-b]pyridin-5-yl]pyridine-2-carboxamide] |
| 0.0001 to 10 | 0.0001 to 10 | CC(C)(C#N)NC(=O)c1cccc(-c2cnc3[nH]c(-c4cnc(C5CC5)nc4)cc3c2)n1 [Compound P-0166, N-(1-cyano-1-methyl-ethyl)-6-[2-(2-cyclopropylpyrimidin-5-yl)-1H-pyrrolo[2,3-b]pyridin-5-yl]pyridine-2-carboxamide] |
